Data published in US5344941A, “Water soluble salts of thionaphthene-2-carboxylic acid” (priority 1992, dated 1994).
Structures can show the parent of a compound that is named as a salt.

Assays:
[1] = pH of a 5% aqueous solution of the salt; format: physicochemical
[2] = Solubility in water and organic solvents
[3] = in vivo
[4] = in vivo; remark: listed apart in the source
Description: The utility of the salts, in a clinical treating sense, is equivalent to TNCA itself but they are far more useful, practically, for the reasons of amelioration of side effects and the high blood levels available via the oral route.

[5] = tested on: rats made hypercalcemic by the injection of Leydig-cell carcinoma-tumor material; experiment: Reduction of blood calcium levels of rats made hypercalcemic by injection of Leydig-cell carcinoma-tumor material; format: in vivo
Procedure: The following tables (Experiments I and II) illustrate the effectiveness of the present invention in reducing the blood calcium levels of rats made hypercalcemic by the injection of Leydig-cell carcinoma-tumor material. For details of the methodology employed in these studies, see: Johannesson et al., Endocrinology 117/4: 1508-1511 (1985). Normal calcium blood levels are in the range of 9-10 mg/dL.
In the table, n=number of rats evaluated at each dosage and in controls while S.D.=standard deviation. These higher initial values reflect Leydig cell-induced hypercalcemia. Data for final calcium levels show the decreases in calcium levels produced following administration of the lysine salt of TNCA.

[6] = Acute toxicity (LD50) by oral route and by injection; details: mouse, in vivo
mice [7] = experiment: as above; details: oral vs intraperitoneal
pK = format: physicochemical
mice [8] = details: cited from earlier work

## O=C(O)c1cc2ccccc2s1 [Example 3, Ammonium salt of TNCA]
[1]
  pH of a 5% aqueous solution: 6.05
[2]; water
  Water solubility (in words): water-soluble

## O=C(O)c1cc2ccccc2s1 [Example 1, Benzo(b)thiophene-2-carboxylic acid L-Lysine salt]
[3]
  Gastric irritation: prevents the adverse effects associated with gastric irritation
[4]
  Absorption from the gastrointestinal tract / following oral administration: readily absorbed following oral administration
[1]
  pH of a 5% aqueous solution: 5.75
[5]; Experiment 1, 195 mg/kg group, N=8, initial (before treatment)
  Initial calcium levels (mean): 12.28 mg/dL
[5]; Experiment 1, 195 mg/kg, N=8, control 17.38
  Final calcium levels (mean): 14.85 mg/dL
[5]; Experiment 1, 292 mg/kg group, N=9, initial (before treatment)
  Initial calcium levels (mean): 13.31 mg/dL
[5]; Experiment 1, 292 mg/kg, N=9, control 17.38
  Final calcium levels (mean): 11.54 mg/dL
[5]; Experiment 2, 195 mg/kg group, N=6, initial (before treatment)
  Initial calcium (mean): 14.07 mg/dL
[5]; Experiment 2, 195 mg/kg, N=6, control 18.03
  Final calcium levels (mean): 13.27 mg/dL
[5]; Experiment 2, 292 mg/kg group, N=6, initial (before treatment)
  Initial calcium (mean): 14.68 mg/dL
[5]; Experiment 2, 292 mg/kg, N=6, control 18.03
  Final calcium levels (mean): 11.00 mg/dL
[5]; Experiment 2, 389 mg/kg group, N=10, initial (before treatment)
  Initial calcium (mean): 13.80 mg/dL
[5]; Experiment 2, 389 mg/kg, N=8, control 18.03
  Final calcium levels (mean): 10.16 mg/dL
[5]; Experiments 1 and 2
  Decrease in calcium levels, dose relation: clearly does-related in both experiments
  Type of calcium-lowering activity: anti-hypercalcemic, rather than hypocalcemic
[5]; relative to pretreatment / normal levels
  Serum calcium levels following treatment: returned to pretreatment levels, but not to below normal values
[2]
  Solubility in ethanol (ethyl alcohol): insoluble
  Solubility in methanol (methyl alcohol): insoluble
[2]; toluene
  Solubility in toluene: insoluble
[2]; water
  solubility: 700 mg/mL
[6]
  LD50: ~1300 mg/kg
[6]; po
  LD50: ~1500 mg/kg
Mice [7]
  LD50 given orally compared to that obtained when administered intraperitoneally: almost equivalent

## O=C(O)c1cc2ccccc2s1 [Example 4, Arginine salt of TNCA]
[1]
  pH of a 5% aqueous solution: 5.8
[2]
  Solubility in ethanol (ethyl alcohol): soluble
  Solubility in methanol (methyl alcohol): soluble
[2]; water
  Water solubility (in words): water-soluble

## C[C@H](N)C(=O)O [L-alanine]
[2]; water
  Water solubility (in words): No water-soluble reaction product is formed

## O=C(O)c1cc2ccccc2s1 [Example 2]
[1]
  pH of a 5% aqueous solution: 6.77
[2]; water
  Water solubility (in words): water-soluble

## O=C(O)c1cc2ccccc2s1 [Example 5, Piperidine salt of TNCA]
[1]
  pH of a 5% aqueous solution: 6.4
[2]; water
  Water solubility (in words): moderately water-soluble

## O=C(O)c1cc2ccccc2s1 [Example 6, Sodium salt of TNCA]
[2]; water
  Water solubility (in words): water-insoluble
[2]; water, listed as sodium
  Water solubility (in words): mainly insoluble in water

## O=C(O)c1cc2ccccc2s1 [TNCA, benzo(b)thiophene-2-carboxylic acid, reference compound]
[3]
  Gastric irritation: causes gastric irritation, resulting in vomiting and bleeding
[4]
  Absorption from the gastrointestinal tract / following oral administration: poorly absorbed from the gastrointestinal tracts
pK
  pKa: 3.4
Mice [8]; by injection, value repeated in text
  LD50 by injection: 1450 mg/kg
Mice [8]; mice, oral, TNCA in gum tragacanth
  LD50: 3600 mg/kg
[2]
  Solubility in methanol (methyl alcohol): soluble in methanol

## O=C(O)c1cc2ccccc2s1 [Example 7]
[2]; water
  Water solubility (in words): water-insoluble

## O=C(O)c1cc2ccccc2s1 [potassium, potassium salt of TNCA]
[2]; water
  Water solubility (in words): mainly insoluble in water
